{"source": "ChEMBL document CHEMBL1811891", "about": "(Bioorg Med Chem, 2011)", "key": {"[1]": {"test": "Half life in rat at 3 mg/kg, iv", "type": "ADME, organism-based", "parameters": "dose 3 mg/kg, route intravenous", "conditions": "in vivo"}, "[2]": {"test": "AUC in rat at 3 mg/kg, iv", "type": "ADME, organism-based", "parameters": "dose 3 mg/kg, route intravenous", "conditions": "plasma"}, "[3]": {"test": "Half life in rat at 10 mg/kg, po", "type": "ADME, organism-based", "parameters": "dose 10 mg/kg, route oral", "conditions": "in vivo"}, "[4]": {"target": "C-C chemokine receptor type 5 (Homo sapiens, UniProt P51681)", "sequence (P51681 whole entry)": "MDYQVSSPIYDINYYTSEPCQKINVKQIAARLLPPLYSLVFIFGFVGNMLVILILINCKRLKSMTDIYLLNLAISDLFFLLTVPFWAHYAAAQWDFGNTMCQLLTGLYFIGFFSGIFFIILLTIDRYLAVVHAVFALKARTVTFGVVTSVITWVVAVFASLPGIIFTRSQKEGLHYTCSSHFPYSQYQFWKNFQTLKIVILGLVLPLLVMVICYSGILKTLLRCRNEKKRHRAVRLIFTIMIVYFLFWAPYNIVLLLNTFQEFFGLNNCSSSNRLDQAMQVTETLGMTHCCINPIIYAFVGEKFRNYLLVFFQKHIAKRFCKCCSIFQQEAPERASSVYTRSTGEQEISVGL", "test": "Antagonist activity at human CCR5 expressed in CHO cells assessed as inhibition of MIP-1alpha-induced calcium mobilization", "type": "functional, cell-based"}, "[5]": {"test": "Clearance in rat at 3 mg/kg, iv", "type": "ADME, organism-based", "parameters": "dose 3 mg/kg, route intravenous", "conditions": "in vivo"}, "Rattus norvegicus [6]": {"test_system": "Rattus norvegicus", "test": "Dose normalized Cmax in rat at 10 mg/kg, po", "type": "ADME, organism-based", "parameters": "dose 10 mg/kg, route oral", "conditions": "in vivo"}, "Rattus norvegicus [7]": {"test_system": "Rattus norvegicus", "test": "Dose normalized AUC in rat at 10 mg/kg, po", "type": "ADME, organism-based", "parameters": "dose 10 mg/kg, route oral", "conditions": "in vivo"}, "[8]": {"test": "Bioavailability in rat at 10 mg/kg, po", "type": "ADME, organism-based", "conditions": "in vivo"}, "[9]": {"test": "Volume of distribution at steady state in rat at 3 mg/kg, iv", "conditions": "in vivo"}, "[10]": {"test": "Aqueous solubility of the compound at pH 6.8", "type": "physicochemical", "conditions": "buffer"}, "[11]": {"test_system": "Human immunodeficiency virus 1", "test": "microbe, parasite or virus in culture", "conditions": "Human immunodeficiency virus 1, Ba-L", "description": "Antiviral activity against R5 tropic HIV1 Ba-L infected PBMC assessed as inhibition of viral p24 antigen expression"}, "Liver microsomes [12]": {"test_system": "Liver microsomes", "test": "Metabolic stability in rat liver microsomes assessed as compound remaining after 15 mins", "type": "ADME, Microsome", "conditions": "0.25 h"}, "Liver microsomes [13]": {"test_system": "Liver microsomes", "test": "Metabolic stability in human liver microsomes assessed as compound remaining after 15 mins", "type": "ADME, Microsome", "conditions": "0.25 h"}, "in vivo [14]": {"test": "in vivo", "conditions": "dog, po, 3 mg/kg"}, "[15]": {"test": "Clearance in rat at 1 mg/kg, iv", "type": "ADME, organism-based", "parameters": "dose 1 mg/kg, route intravenous", "conditions": "in vivo"}, "[16]": {"test": "Clearance in monkey at 1 mg/kg, iv", "type": "ADME, organism-based, Macaca mulatta", "parameters": "dose 1 mg/kg, route intravenous", "conditions": "rhesus monkey, in vivo"}, "[17]": {"test": "Bioavailability in rat at 1 mg/kg, iv", "type": "ADME, organism-based", "conditions": "in vivo"}, "Rattus norvegicus [18]": {"test_system": "Rattus norvegicus", "test": "Toxicity in rat at 100 mg/kg, po after 14 days", "type": "organism-based", "parameters": "dose 100 mg/kg, route oral", "conditions": "in vivo, 336 h"}, "[19]": {"test": "Bioavailability in dog at 1 mg/kg, iv", "type": "ADME, organism-based, Canis lupus familiaris", "conditions": "in vivo"}, "in vivo [20]": {"test": "in vivo", "conditions": "dog, plasma, po, 3 mg/kg"}, "Rhesus monkey": {"test_system": "Rhesus monkey", "test": "Half life in monkey at 10 mg/kg, po", "type": "ADME, organism-based, Macaca mulatta", "parameters": "dose 10 mg/kg, route oral", "conditions": "in vivo"}, "[21]": {"test": "Clearance in dog at 1 mg/kg, iv", "type": "ADME, organism-based, Canis lupus familiaris", "parameters": "dose 1 mg/kg, route intravenous", "conditions": "in vivo"}, "[22]": {"test": "Half life in dog at 3 mg/kg, po", "type": "ADME, organism-based, Canis lupus familiaris", "parameters": "dose 3 mg/kg, route oral", "conditions": "in vivo"}, "Salmonella typhimurium": {"test_system": "Salmonella typhimurium", "test": "Genotoxicity in Salmonella Typhimurium by Ames test", "type": "toxicity, organism-based", "conditions": "salmonella enterica subsp. enterica serovar typhimurium"}, "[23]": {"test": "Bioavailability in monkey at 1 mg/kg, iv", "type": "ADME, organism-based, Macaca mulatta", "conditions": "rhesus monkey, in vivo"}, "Canis familiaris": {"test_system": "Canis familiaris", "test": "Cardiotoxicity in dog at 100 mg/kg, po after 14 days", "type": "toxicity, organism-based, Canis lupus familiaris", "parameters": "dose 100 mg/kg, route oral", "conditions": "in vivo, 336 h"}}, "data": [{"smiles": "CCCN1C(=O)[C@@H]([C@H](O)C2CCCCC2)NC(=O)C12CCN(Cc1ccc(Oc3ccc(C(=O)NC)cc3)cc1)CC2.Cl", "values": [{"measurement": "half-life", "setting": "[1]", "result": 0.72, "unit": "h"}, {"measurement": "AUC", "setting": "[2]", "result": 1.37, "unit": "µg·h/mL"}, {"measurement": "half-life", "setting": "[3]", "result": 2, "unit": "h"}, {"measurement": "IC50", "setting": "[4]", "result": 0.028, "unit": "µM"}, {"measurement": "clearance", "setting": "[5]", "result": 2.15, "unit": "L/h/kg"}, {"measurement": "Cmax/dose", "setting": "Rattus norvegicus [6]", "result": 0.133, "unit": "µg/mL"}, {"measurement": "AUC/dose", "setting": "Rattus norvegicus [7]", "result": 513, "unit": "ng·h/mL"}, {"measurement": "bioavailability", "setting": "[8]", "result": 11.2, "unit": "%"}, {"measurement": "Vd", "setting": "[9]", "result": 1.73, "unit": "L/kg"}]}, {"smiles": "CCCCCN1C(=O)[C@@H]([C@H](O)C2CCCCC2)NC(=O)C12CCN(Cc1ccc(Oc3ccc(C(=O)NC)cc3)cc1)CC2", "values": [{"measurement": "IC50", "setting": "[4]", "result": 0.068, "unit": "µM"}]}, {"smiles": "CCCCCCN1C(=O)[C@@H]([C@H](O)C2CCCCC2)NC(=O)C12CCN(Cc1ccc(Oc3ccc(C(=O)NC)cc3)cc1)CC2", "values": [{"measurement": "IC50", "setting": "[4]", "result": 0.11, "unit": "µM"}]}, {"smiles": "CCCCCCCN1C(=O)[C@@H]([C@H](O)C2CCCCC2)NC(=O)C12CCN(Cc1ccc(Oc3ccc(C(=O)NC)cc3)cc1)CC2", "values": [{"measurement": "IC50", "setting": "[4]", "result": 0.19, "unit": "µM"}]}, {"smiles": "CNC(=O)c1ccc(Oc2ccc(CN3CCC4(CC3)C(=O)N[C@H]([C@H](O)C3CCCCC3)C(=O)N4CCC(C)O)cc2)cc1", "note": "(stereo partly drawn)", "values": [{"measurement": "IC50", "setting": "[4]", "result": 0.18, "unit": "µM"}]}, {"smiles": "CNC(=O)c1ccc(Oc2ccc(CN3CCC4(CC3)C(=O)N[C@H]([C@H](O)C3CCCCC3)C(=O)N4CCOC)cc2)cc1", "values": [{"measurement": "IC50", "setting": "[4]", "result": 0.033, "unit": "µM"}]}, {"smiles": "CNC(=O)c1ccc(Oc2ccc(CN3CCC4(CC3)C(=O)N[C@H]([C@H](O)C3CCCCC3)C(=O)N4CC(F)(F)F)cc2)cc1", "values": [{"measurement": "IC50", "setting": "[4]", "result": 0.046, "unit": "µM"}]}, {"smiles": "CNC(=O)c1ccc(Oc2ccc(CN3CCC4(CC3)C(=O)N[C@H]([C@H](O)C3CCCCC3)C(=O)N4CC(F)(F)C(F)(F)F)cc2)cc1", "values": [{"measurement": "IC50", "setting": "[4]", "result": 0.27, "unit": "µM"}]}, {"smiles": "CCCCN1C(=O)C(C(C)C)NC(=O)C12CCN(Cc1ccc(Oc3ccccc3)cc1)CC2.Cl", "note": "(stereo not drawn)", "values": [{"measurement": "half-life", "setting": "[1]", "result": 0.217, "unit": "h"}, {"measurement": "AUC", "setting": "[2]", "result": 0.372, "unit": "µg·h/mL"}, {"measurement": "half-life", "setting": "[3]", "result": 1.26, "unit": "h"}, {"measurement": "solubility", "setting": "[10]", "result": 0.2, "unit": "µg/mL"}, {"measurement": "Cmax/dose", "setting": "Rattus norvegicus [6]", "result": 0.0333, "unit": "µg/mL"}, {"measurement": "AUC/dose", "setting": "Rattus norvegicus [7]", "result": 96.7, "unit": "ng·h/mL"}, {"measurement": "bioavailability", "setting": "[8]", "result": 1.3, "unit": "%"}]}, {"smiles": "CCCCN1C(=O)C(CC2CCCCC2)NC(=O)C12CCN(Cc1ccc(Oc3ccc(C(=O)NC)cc3)cc1)CC2.Cl", "note": "(stereo not drawn)", "values": [{"measurement": "half-life", "setting": "[1]", "result": 0.332, "unit": "h"}, {"measurement": "AUC", "setting": "[2]", "result": 0.4, "unit": "µg·h/mL"}, {"measurement": "half-life", "setting": "[3]", "result": 1.72, "unit": "h"}, {"measurement": "clearance", "setting": "[5]", "result": 6.78, "unit": "L/h/kg"}, {"measurement": "Cmax/dose", "setting": "Rattus norvegicus [6]", "result": 0.0056, "unit": "µg/mL"}, {"measurement": "AUC/dose", "setting": "Rattus norvegicus [7]", "result": 24.8, "unit": "ng·h/mL"}, {"measurement": "bioavailability", "setting": "[8]", "result": 1.9, "unit": "%"}]}, {"smiles": "CNC(=O)c1ccc(Oc2ccc(CN3CCC4(CC3)C(=O)N[C@H]([C@H](O)C3CCCCC3)C(=O)N4CCN(C)C)cc2)cc1", "values": [{"measurement": "IC50", "setting": "[4]", "result": 0.64, "unit": "µM"}]}, {"smiles": "CNC(=O)c1ccc(Oc2ccc(CN3CCC4(CC3)C(=O)N[C@H]([C@H](O)C3CCCCC3)C(=O)N4CCN)cc2)cc1", "values": [{"measurement": "IC50", "setting": "[4]", "result": 0.75, "unit": "µM"}]}, {"smiles": "Cc1ccc(-c2ccc3c(c2)C=C(C(=O)Nc2ccc(C[N+](C)(C)C4CCOCC4)cc2)CCC3)cc1", "values": [{"measurement": "IC90", "setting": "[11]", "result": 0.256, "unit": "µM"}]}, {"smiles": "CCCCN1C(=O)[C@@H]([C@H](O)C2CCCCC2)NC(=O)C12CCN(Cc1ccc(Oc3ccccc3)cc1)CC2.Cl", "values": [{"measurement": "Stability", "setting": "Liver microsomes [12]", "result": 18, "unit": "%"}, {"measurement": "Stability", "setting": "Liver microsomes [13]", "result": 6, "unit": "%"}]}, {"smiles": "CCCCN1C(=O)[C@@H]([C@H](O)C(C)C)NC(=O)C12CCN(Cc1ccc(Oc3ccccc3)cc1)CC2.Cl", "values": [{"measurement": "solubility", "setting": "[10]", "result": 2.7, "unit": "µg/mL"}]}, {"smiles": "Cc1c(O)cccc1C(=O)N[C@@H](CSc1ccccc1)[C@H](O)CN1C[C@H]2CCCC[C@H]2C[C@H]1C(=O)NC(C)(C)C", "values": [{"measurement": "IC90", "setting": "[11]", "result": 0.105, "unit": "µM"}]}, {"smiles": "CCCCN1C(=O)[C@@H]([C@H](O)C2CCCCC2)NC(=O)C12CCN(Cc1ccc(Oc3ccc(C(=O)O)cc3)cc1)CC2.Cl", "note": "[APLAVIROC HYDROCHLORIDE]", "values": [{"measurement": "Cmax", "setting": "in vivo [14]", "result": 0.135, "unit": "µg/mL"}, {"measurement": "clearance", "setting": "[15]", "result": 10, "unit": "mL/min"}, {"measurement": "clearance", "setting": "[16]", "result": 15, "unit": "mL/min"}, {"measurement": "bioavailability", "setting": "[17]", "result": 23, "unit": "%"}, {"measurement": "Activity", "setting": "Rattus norvegicus [18]", "result": "Non-toxic"}, {"measurement": "bioavailability", "setting": "[19]", "result": 12, "unit": "%"}, {"measurement": "AUC", "setting": "in vivo [20]", "result": 0.189, "unit": "µg·h/mL"}, {"measurement": "t1/2", "setting": "Rhesus monkey", "result": 24.4, "unit": "h"}, {"measurement": "clearance", "setting": "[21]", "result": 33, "unit": "mL/min"}, {"measurement": "half-life", "setting": "[22]", "result": 4.5, "unit": "h"}, {"measurement": "IC90", "setting": "[11]", "result": 0.012, "unit": "µM"}, {"measurement": "Activity", "setting": "Salmonella typhimurium", "result": "Non-toxic"}, {"measurement": "bioavailability", "setting": "[23]", "result": 4.6, "unit": "%"}, {"measurement": "Activity", "setting": "Canis familiaris", "result": "Non-toxic"}]}, {"smiles": "COC[C@@H](c1ccc(C(F)(F)F)cc1)N1CCN(C2(C)CCN(C(=O)c3c(C)ncnc3C)CC2)C[C@@H]1C", "note": "[VICRIVIROC]", "values": [{"measurement": "IC90", "setting": "[11]", "result": 0.079, "unit": "µM"}]}, {"smiles": "Cc1cn([C@H]2C[C@H](N=[N+]=[N-])[C@@H](CO)O2)c(=O)[nH]c1=O", "note": "[ZIDOVUDINE]", "values": [{"measurement": "IC90", "setting": "[11]", "result": 0.048, "unit": "µM"}]}]}
